Assay results taken from US20180031580A1, “USE OF IGF-1 AS PROGNOSTIC FACTOR IN CALCIFICATION OF AORTIC VALVES” (THE ASAN FOUNDATION, priority 2015, published 2018).

Tested on: aortic valve vascular smooth muscle tissue
Assay: ALP staining of aortic valve vascular smooth muscle tissue, osteocytogenesis level
Type: in vivo, mice
Conditions: wild-type or eNOS-deficient mice treated with IGF-1 alone; FIG. 2a
Description: Wild-type mice or eNOS-deficient mice which are animal models with the aortic valve calcification were treated with insulin-like growth factor type 1 (IGF-1) alone or treated with dipeptidyl-peptidase 4 (DPP-4) and IGF-1 at the same time. Then, ALP staining was performed on the aortic valve vascular smooth muscle tissue, thereby comparing the […] level of tissue (FIG. 2a). Here, the aortic valve vascular smooth muscle tissue of the wild-type mice treated with nothing or the eNOS-deficient mice was used as a control group.
FIG. 2a are an image and a graph showing verification of the effect of DPP-4 on an action of IGF-1 inhibiting osteocytogenesis in the aortic valve vascular smooth muscle tissue of the wild-type mice or the eNOS-deficient mice.

Substance: IGF-1: polypeptide having a size of about 7.5 kDa present in a plasma of mammals; SEQ ID NO: 1
- osteocytogenesis of aortic valve vascular smooth muscle tissue (ALP staining): tended to be alleviated
